The record followed here is ChEMBL document CHEMBL3797118, “New Colchicine-Derived Triazoles and Their Influence on Cytotoxicity and Microtubule Morphology” (ACS Med Chem Lett, 2016).

Active and inactive are the calls of the source. No cut-off for these calls is given here.

In one experiment the test system is A549. As to the kind of experiment: Cytotoxicity against human A549 cells after 48 hrs by Celltiter-Glo luminescent cell viability assay. It is filed as functional, cell-based. To be noted: A549, 48 h. In general terms: Cellular ATP, detected with luciferase, serves as a proxy for viable cell number.
Another experiment concerns Jurkat. The experiment can be described thus: Cytotoxicity against human Jurkat cells after 48 hrs by Celltiter-Glo luminescent cell viability assay. It is filed as functional, cell-based.
In the next experiment the test system is HeLa. The experiment can be described thus: Cytotoxicity against human HeLa cells after 48 hrs by Celltiter-Glo luminescent cell viability assay. The experiment is classed as functional, cell-based.
Experiment [1] can be described thus: Cytotoxicity against human SKMES1 cells after 48 hrs by Celltiter-Glo luminescent cell viability assay. The conditions noted are these: SK-MES-1, 48 h. It is filed as functional, cell-based.
The subject of experiment [2] is MDA-MB-231. The experiment can be described thus: Inhibition of microtubule network formation in human MDA-MB-231 cells at 100 nM after 24 hrs by DAPI staining based immunofluorescence microscopic analysis. The experiment is classed as cell-based.
A short description of experiment [3]: Cytotoxicity against human THP1 cells after 24 hrs by Celltiter-Glo luminescent cell viability assay. To be noted: THP-1, 24 h. It is filed as functional, cell-based.
The test system of another experiment is H1975. As to the kind of experiment: Inhibition of microtubule network formation in human H1975 cells assessed as centrosome declustering at 500 nM after 24 hrs by DAPI staining based immunofluorescence microscopic analysis. The experiment is classed as cell-based.
Experiment [4] deals with MDA-MB-231. As to the kind of experiment: Inhibition of microtubule network formation in human MDA-MB-231 cells assessed as centrosome declustering at 100 nM after 24 hrs by DAPI staining based immunofluorescence microscopic analysis. It is filed as cell-based.

As for `COc1cc2c(c(OC)c1OC)-c1ccc(OC)c(=O)cc1[C@@H](n1cc(CCC(=O)OCc3ccc(F)cc3)nn1)CC2`, the IC50 (usually the concentration that gives 50% inhibition) was 5.5 nM with A549; 2.9 nM in the experiment on Jurkat; 4.9 nM in the experiment on HeLa (read-out: IC50); 3.5 nM in experiment [1]; 5.1 nM in experiment [3]. Also, the inhibition result with MDA-MB-231 [2] is “Active”.

For the molecule `COc1cc2c(c(OC)c1OC)-c1ccc(OC)c(=O)cc1[C@@H](n1cc(COC(=O)CCCCCNC(=O)OC(C)(C)C)nn1)CC2`, the IC50 with Jurkat came to 9.4 nM; in experiment [3], 5.4 nM.

In the case of `COc1cc2c(c(OC)c1OC)-c1ccc(OC)c(=O)cc1[C@@H](n1cc(COC(=O)CCNC(=O)OC(C)(C)C)nn1)CC2`, the IC50 with A549 was 25.4 nM; in the experiment on Jurkat, 5 nM; in the experiment on HeLa (read-out: IC50), 20 nM; in experiment [1], 9.6 nM; in experiment [3], 5.7 nM. In the experiment on MDA-MB-231 [2], the inhibition result was “Active”.

With `COc1cc2c(c(OC)c1OC)-c1ccc(OC)c(=O)cc1[C@@H](NC(C)=O)CC2` [COLCHICINE], the half-inhibitory concentration (IC50) in the experiment with A549 is 23.9 nM; with HeLa (read-out: IC50), 21.8 nM; in experiment [1] it was 18.6 nM; in experiment [3], 20.4 nM. Also, in the experiment with MDA-MB-231 [2], the inhibition result is “Active”.

With `COc1cc2c(c(OC)c1OC)-c1ccc(OC)c(=O)cc1[C@@H](n1cc(CCC(=O)OCc3ccccc3)nn1)CC2`, it took 31 nM to reach half-maximal inhibition in experiment [3] (IC50).

With `COc1cc2c(c(OC)c1OC)-c1ccc(OC)c(=O)cc1[C@@H](n1cc(COC(=O)[C@H](CCSC)NC(=O)OC(C)(C)C)nn1)CC2`, the midpoint of inhibition in experiment [3], the IC50, lay at 10.6 nM.

With `COc1cc2c(c(OC)c1OC)-c1ccc(OC)c(=O)cc1[C@@H](n1cc(CCCCC(=O)OCc3ccccc3)nn1)CC2`, the concentration for half-maximal inhibition (IC50) was 16.7 nM with Jurkat and 35.2 nM in experiment [3].

Turning to `COc1cc2c(c(OC)c1OC)-c1ccc(OC)c(=O)cc1[C@@H](n1cc(COC(=O)[C@H](Cc3ccccc3)NC(=O)OCc3ccccc3)nn1)CC2`, the figures for the IC50 (with Jurkat; in experiment [3]) were 21.4 nM and 23.3 nM, respectively.

On to `COc1cc2c(c(OC)c1OC)-c1ccc(OC)c(=O)cc1[C@@H](n1cc(CNC(=O)OC(C)(C)C)nn1)CC2`, for which the IC50 in experiment [3] was determined as 23.1 nM.

As to `CC[C@H](C)[C@H](NC(=O)OC(C)(C)C)C(=O)OCc1cn([C@H]2CCc3cc(OC)c(OC)c(OC)c3-c3ccc(OC)c(=O)cc32)nn1`, in experiment [3], the IC50 was 17.3 nM.

As to `COc1cc2c(c(OC)c1OC)-c1ccc(OC)c(=O)cc1[C@@H](n1cc(CCC(=O)OCc3cccc(F)c3)nn1)CC2`, the IC50 was 4.9 nM in the experiment with Jurkat and 9.3 nM in experiment [3].

Consider `COc1cc2c(c(OC)c1OC)-c1ccc(OC)c(=O)cc1[C@@H](n1cc(CCC(=O)OCc3ccccc3F)nn1)CC2`, for which the concentration for half-maximal inhibition (IC50) in the experiment with Jurkat was 9.7 nM; in experiment [3], 12.7 nM.

For `COc1cc2c(c(OC)c1OC)-c1ccc(OC)c(=O)cc1[C@@H](n1cc(COC(=O)[C@H](Cc3ccccc3)NC(C)=O)nn1)CC2`, the IC50 in the experiment on Jurkat is 84.2 nM; in experiment [3], 25.5 nM.

Consider `COc1cc2c(c(OC)c1OC)-c1ccc(OC)c(=O)cc1[C@@H](n1cc(COC(=O)[C@@H](N)Cc3ccccc3)nn1)CC2`, for which the IC50 is 25.1 nM in the experiment on Jurkat and 24 nM in experiment [3].

`COc1cc2c(c(OC)c1OC)-c1ccc(OC)c(=O)cc1[C@@H](n1cc(COC(=O)[C@@H](NC(=O)OC(C)(C)C)C(C)C)nn1)CC2` displayed an IC50 in experiment [3] of 8.1 nM.

For `COc1cc2c(c(OC)c1OC)-c1ccc(OC)c(=O)cc1[C@@H](n1cc(COC(=O)[C@H](Cc3c[nH]c4ccccc34)NC(=O)OC(C)(C)C)nn1)CC2`, the IC50 in experiment [3] was 7.3 nM.

Consider `COc1cc2c(c(OC)c1OC)-c1ccc(OC)c(=O)cc1[C@@H](n1cc(COC(=O)[C@H](Cc3ccccc3)NC(=O)OC(C)(C)C)nn1)CC2`, for which the IC50 was 73.7 nM in the experiment on A549; 15.3 nM in the experiment on Jurkat; 70.7 nM in the experiment with HeLa (read-out: IC50); 39.2 nM in experiment [1]; 4.1 nM in experiment [3]. The inhibition entry in the experiment with H1975, in the experiment with MDA-MB-231 [4] and in the experiment on MDA-MB-231 [2] was “Active” in each case.

In experiment [3], `COc1cc2c(c(OC)c1OC)-c1ccc(OC)c(=O)cc1[C@@H](N=[N+]=[N-])CC2` showed an IC50 of 20.9 nM.

`COc1cc2c(c(OC)c1OC)-c1ccc(OC)c(=O)cc1[C@@H](n1cc(COC(=O)[C@H](CC(C)C)NC(=O)OC(C)(C)C)nn1)CC2` registered a half-inhibitory concentration (IC50) in experiment [3] of 6.6 nM.

The molecule `COc1cc2c(c(OC)c1OC)-c1ccc(OC)c(=O)cc1[C@@H](n1cc(C(=O)OCc3ccccc3)nn1)CC2` showed an IC50 in experiment [3] of 140 nM.

Consider `CC(=O)O[C@H]1C(=O)[C@@]2(C)[C@H]([C@H](OC(=O)c3ccccc3)[C@]3(O)C[C@H](OC(=O)[C@H](O)[C@@H](NC(=O)c4ccccc4)c4ccccc4)C(C)=C1C3(C)C)[C@]1(OC(C)=O)CO[C@@H]1C[C@@H]2O` [PACLITAXEL], for which the IC50 with A549 is 13.2 nM; with HeLa, 18.9 nM; in experiment [1] it was 13.5 nM. Besides, the inhibition result in the experiment with MDA-MB-231 [2] is “inactive”.
